Source: ChEMBL document CHEMBL1141522, “Reduced cardiac side-effect potential by introduction of polar groups: discovery of NIBR-1282, an orally bioavailable CCR5 antagonist which is active in vivo” (Bioorg Med Chem Lett, 2008)
≈ marks a conversion by molar mass, not a printed value. Calls of active or inactive are those of the source. The rule behind the calls is not given here.

Assays:
[1] = biological target: Voltage-gated inwardly rectifying potassium channel KCNH2 (Homo sapiens, UniProt Q12809); test: Displacement of [3H]dofetilide from human ERG expressed in HEK293 cell membranes
Chain of Voltage-gated inwardly rectifying potassium channel KCNH2 (Q12809 whole entry): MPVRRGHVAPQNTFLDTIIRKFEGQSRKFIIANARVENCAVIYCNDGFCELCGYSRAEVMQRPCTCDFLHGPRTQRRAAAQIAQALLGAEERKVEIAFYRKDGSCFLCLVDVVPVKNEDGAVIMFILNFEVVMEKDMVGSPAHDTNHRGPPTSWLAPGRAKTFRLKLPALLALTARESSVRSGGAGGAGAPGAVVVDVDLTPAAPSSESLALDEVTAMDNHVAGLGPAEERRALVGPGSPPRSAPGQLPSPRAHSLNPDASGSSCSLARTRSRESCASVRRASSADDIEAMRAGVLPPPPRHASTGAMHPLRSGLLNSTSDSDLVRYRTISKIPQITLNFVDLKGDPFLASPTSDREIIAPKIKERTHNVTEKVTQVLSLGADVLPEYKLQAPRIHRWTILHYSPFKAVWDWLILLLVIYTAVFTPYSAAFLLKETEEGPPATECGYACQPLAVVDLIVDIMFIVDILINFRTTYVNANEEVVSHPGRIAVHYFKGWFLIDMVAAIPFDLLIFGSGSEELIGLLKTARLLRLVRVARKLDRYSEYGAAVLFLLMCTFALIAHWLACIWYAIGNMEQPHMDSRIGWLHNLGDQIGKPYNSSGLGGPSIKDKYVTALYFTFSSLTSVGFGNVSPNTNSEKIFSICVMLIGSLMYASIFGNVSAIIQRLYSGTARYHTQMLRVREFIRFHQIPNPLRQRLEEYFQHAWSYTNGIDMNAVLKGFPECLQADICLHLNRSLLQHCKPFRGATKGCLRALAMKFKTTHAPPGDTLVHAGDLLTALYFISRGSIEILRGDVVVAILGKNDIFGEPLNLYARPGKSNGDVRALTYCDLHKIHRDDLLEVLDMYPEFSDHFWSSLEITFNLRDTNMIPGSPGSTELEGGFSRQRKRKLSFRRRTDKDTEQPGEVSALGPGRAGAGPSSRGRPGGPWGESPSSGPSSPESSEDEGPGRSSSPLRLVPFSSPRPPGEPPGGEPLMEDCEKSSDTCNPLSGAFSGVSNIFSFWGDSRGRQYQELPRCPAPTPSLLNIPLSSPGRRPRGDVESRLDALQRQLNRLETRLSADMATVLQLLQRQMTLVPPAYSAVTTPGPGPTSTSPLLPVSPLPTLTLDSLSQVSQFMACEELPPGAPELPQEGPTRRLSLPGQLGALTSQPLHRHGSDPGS

[2] = test system: Heart; test: Toxicity in isolated rabbit heart model assessed as adverse side effect upto 1.5 uM; assay type: tissue-based, Oryctolagus cuniculus
[3] = biological target: T1, C-C chemokine receptor type 5 (Macaca fascicularis, UniProt P61814); test: Displacement of radiolabeled MIP-1alpha from cynomolgus monkey CCR5 expressed in CHO cells; assay type: cell-based
[4] = test system: Heart; test: Toxicity in isolated rabbit heart model assessed as adverse side effect upto 1.0 uM; assay type: tissue-based, Oryctolagus cuniculus; conditions: ex_vivo
[5] = biological target: T2, C-C chemokine receptor type 5 (Homo sapiens, UniProt P51681); test: Displacement of [125I]RANTES from human CCR5 expressed in CHO cells; assay type: cell-based
T2 sequence (P51681 whole entry): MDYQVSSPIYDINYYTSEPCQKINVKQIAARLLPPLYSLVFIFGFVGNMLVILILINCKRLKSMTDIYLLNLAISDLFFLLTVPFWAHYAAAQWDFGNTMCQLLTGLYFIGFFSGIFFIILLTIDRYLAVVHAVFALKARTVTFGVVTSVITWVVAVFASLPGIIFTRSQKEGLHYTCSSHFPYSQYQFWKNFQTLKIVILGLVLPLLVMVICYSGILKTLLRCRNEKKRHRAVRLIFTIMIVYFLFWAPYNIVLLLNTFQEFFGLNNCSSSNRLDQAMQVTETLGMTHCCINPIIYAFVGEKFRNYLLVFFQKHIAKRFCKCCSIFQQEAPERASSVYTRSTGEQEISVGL

[6] = test system: Heart; test: Toxicity in isolated rabbit heart model assessed as adverse side effect upto 0.5 uM; assay type: tissue-based, Oryctolagus cuniculus; conditions: ex_vivo
[7] = test system: Cynomolgus monkey; test: Prolongation of graft survival in cynomolgus monkey kidney transplantation model at 20 mg/kg, sc bid; assay type: functional, Macaca fascicularis; conditions: route subcutaneous
[8] = biological target: C-X-C chemokine receptor type 4 (Homo sapiens) (UniProt P61073); test: Inhibition of CXCR4 upto 1 uM
[9] = biological target: C-C chemokine receptor type 6 (Homo sapiens) (UniProt P51684); test: Inhibition of CCR6 upto 1 uM
Chain of C-C chemokine receptor type 6 (Homo sapiens) (P51684 whole entry): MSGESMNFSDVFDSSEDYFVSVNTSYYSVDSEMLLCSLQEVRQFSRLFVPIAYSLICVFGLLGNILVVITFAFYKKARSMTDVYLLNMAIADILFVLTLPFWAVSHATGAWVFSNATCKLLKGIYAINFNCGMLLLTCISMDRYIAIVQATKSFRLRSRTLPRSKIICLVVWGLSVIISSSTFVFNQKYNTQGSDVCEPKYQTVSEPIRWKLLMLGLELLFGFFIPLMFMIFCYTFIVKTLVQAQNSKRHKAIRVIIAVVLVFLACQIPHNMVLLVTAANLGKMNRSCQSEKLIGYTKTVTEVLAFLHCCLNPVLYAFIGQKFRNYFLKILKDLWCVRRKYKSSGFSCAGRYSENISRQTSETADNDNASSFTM

[10] = biological target: C-X-C chemokine receptor type 2 (Homo sapiens) (UniProt P25025); test: Inhibition of CXCR2 upto 1 uM
[11] = AUC in dog at 1 mg/kg, po; assay type: ADME, organism-based, Canis lupus familiaris; parameters: dose 1 mg/kg, route oral; conditions: plasma
[12] = Oral bioavailability in dog; assay type: ADME, organism-based, Canis lupus familiaris; conditions: in vivo
[13] = biological target: C-C chemokine receptor type 2 (Homo sapiens) (UniProt P41597); test: Inhibition of CCR2 upto 1 uM
Chain of C-C chemokine receptor type 2 (Homo sapiens) (P41597 whole entry, looked up): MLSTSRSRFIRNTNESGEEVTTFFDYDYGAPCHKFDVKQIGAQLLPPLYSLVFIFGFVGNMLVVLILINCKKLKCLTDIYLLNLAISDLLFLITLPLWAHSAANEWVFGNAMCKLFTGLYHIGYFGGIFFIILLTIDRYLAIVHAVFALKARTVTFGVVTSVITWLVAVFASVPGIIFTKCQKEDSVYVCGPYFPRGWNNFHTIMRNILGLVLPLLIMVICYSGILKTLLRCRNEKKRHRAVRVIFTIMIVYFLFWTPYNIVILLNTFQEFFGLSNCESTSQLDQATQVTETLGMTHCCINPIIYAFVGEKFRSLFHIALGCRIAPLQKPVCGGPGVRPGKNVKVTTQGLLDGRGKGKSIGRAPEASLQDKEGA

[14] = biological target: T1, C-C chemokine receptor type 5; test: Antagonist activity at cynomolgus monkey CCR5 expressed in CHO cells assessed as MIP-1-alpha-induced Ca2+ mobilization; assay type: functional, cell-based
[15] = biological target: C-C chemokine receptor type 4 (Homo sapiens) (UniProt P51679); test: Inhibition of CCR4 upto 1 uM
[16] = Half life in po dosed cynomolgus monkey; assay type: ADME, organism-based, Macaca fascicularis; conditions: in vivo
[17] = Partition coefficient, log P of the compound; assay type: physicochemical; conditions: octanol/water
[18] = biological target: Cytochrome P450 1A2 (Homo sapiens, UniProt P05177); test: Inhibition of CYP1A2; assay type: ADME
[19] = biological target: C-C chemokine receptor type 1 (Homo sapiens) (UniProt P32246); test: Inhibition of CCR1 upto 1 uM
[20] = Cmax in cynomolgus monkey at 1 mg/kg, po; assay type: ADME, organism-based, Macaca fascicularis; parameters: dose 1 mg/kg, route oral; conditions: in vivo
[21] = biological target: C-X-C chemokine receptor type 1 (Homo sapiens) (UniProt P25024); test: Inhibition of CXCR1 upto 1 uM
Chain of C-X-C chemokine receptor type 1 (Homo sapiens) (P25024 whole entry): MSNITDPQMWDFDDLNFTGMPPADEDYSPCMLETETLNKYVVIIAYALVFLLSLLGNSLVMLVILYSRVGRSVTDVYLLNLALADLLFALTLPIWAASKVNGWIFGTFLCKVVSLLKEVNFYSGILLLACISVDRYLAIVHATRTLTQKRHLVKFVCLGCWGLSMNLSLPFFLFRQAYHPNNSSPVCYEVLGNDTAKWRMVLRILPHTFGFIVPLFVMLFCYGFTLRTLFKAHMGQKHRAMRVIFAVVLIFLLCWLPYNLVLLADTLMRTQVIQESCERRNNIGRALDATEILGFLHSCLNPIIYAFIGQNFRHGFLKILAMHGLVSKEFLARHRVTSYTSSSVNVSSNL

[22] = Lipophilicity, log D at pH 6.8; assay type: physicochemical; conditions: buffer
[23] = Tmax in po dosed cynomolgus monkey; assay type: ADME, organism-based, Macaca fascicularis; conditions: in vivo
[24] = biological target: C-C chemokine receptor type 7 (Homo sapiens) (UniProt P32248); test: Inhibition of CCR7 upto 1 uM
[25] = Mean residence time in dog; assay type: ADME, organism-based, Canis lupus familiaris; conditions: in vivo
[26] = biological target: Cytochrome P450 2D6 (Homo sapiens, UniProt P10635); test: Inhibition of CYP2D6; assay type: ADME
Chain of Cytochrome P450 2D6 (P10635 whole entry): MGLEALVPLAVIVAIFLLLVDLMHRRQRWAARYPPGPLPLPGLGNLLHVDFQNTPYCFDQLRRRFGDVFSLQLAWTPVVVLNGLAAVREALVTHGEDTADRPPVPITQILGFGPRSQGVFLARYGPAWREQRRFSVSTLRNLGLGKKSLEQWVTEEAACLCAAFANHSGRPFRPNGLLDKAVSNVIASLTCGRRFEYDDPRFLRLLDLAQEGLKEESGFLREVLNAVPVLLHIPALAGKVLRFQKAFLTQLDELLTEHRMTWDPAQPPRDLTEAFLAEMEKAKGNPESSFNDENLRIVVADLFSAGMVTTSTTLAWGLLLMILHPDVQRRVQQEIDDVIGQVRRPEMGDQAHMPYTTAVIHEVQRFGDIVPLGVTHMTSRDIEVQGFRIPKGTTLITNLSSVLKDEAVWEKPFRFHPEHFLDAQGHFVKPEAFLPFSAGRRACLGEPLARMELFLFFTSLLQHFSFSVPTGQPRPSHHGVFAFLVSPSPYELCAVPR

[27] = test system: Cynomolgus monkey; test: Prolongation of graft survival in cynomolgus monkey kidney transplantation model at 20 mg/kg, sc bid in presence of cyclosporine A; assay type: functional, Macaca fascicularis; conditions: route subcutaneous
[28] = biological target: C-C chemokine receptor type 3 (Homo sapiens) (UniProt P51677); test: Inhibition of CCR3 upto 1 uM
Chain of C-C chemokine receptor type 3 (Homo sapiens) (P51677 whole entry): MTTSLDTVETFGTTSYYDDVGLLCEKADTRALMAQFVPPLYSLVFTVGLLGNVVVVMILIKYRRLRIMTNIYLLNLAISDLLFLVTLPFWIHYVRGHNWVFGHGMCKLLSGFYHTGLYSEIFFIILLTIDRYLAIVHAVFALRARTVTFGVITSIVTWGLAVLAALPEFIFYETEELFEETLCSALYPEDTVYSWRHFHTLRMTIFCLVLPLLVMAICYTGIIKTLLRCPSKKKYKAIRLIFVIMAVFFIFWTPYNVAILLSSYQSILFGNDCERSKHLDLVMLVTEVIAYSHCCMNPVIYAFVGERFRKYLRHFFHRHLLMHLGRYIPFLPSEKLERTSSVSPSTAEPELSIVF

[29] = Tmax in po dosed rat; assay type: ADME, organism-based; conditions: in vivo
[30] = Permeability from basolateral to apical side of human Caco-2 cell membranes; assay type: ADME, cell-based; conditions: read-out: permeability (converted)
[31] = AUC in rat at 1 mg/kg, po; assay type: ADME, organism-based; parameters: dose 1 mg/kg, route oral; conditions: plasma
[32] = Protein binding in human plasma; assay type: ADME, cell-free
[33] = Oral bioavailability in rat; assay type: ADME, organism-based; conditions: in vivo
[34] = Dissociation constant, pKa of the compound; assay type: physicochemical
[35] = Inhibition of muscarinic acetylcholine receptor at 1 uM
[36] = Solubility in water; assay type: physicochemical
[37] = Tmax in po dosed dog; assay type: ADME, organism-based, Canis lupus familiaris; conditions: in vivo
[38] = biological target: Cytochrome P450 2C19 (Homo sapiens, UniProt P33261); test: Inhibition of CYP2C19; assay type: ADME
[39] = Half life in po dosed dog; assay type: ADME, organism-based, Canis lupus familiaris; conditions: in vivo
[40] = Oral bioavailability in cynomolgus monkey; assay type: ADME, organism-based, Macaca fascicularis; conditions: in vivo
[41] = Intrinsic clearance in human liver microsomes; assay type: ADME, Microsome
[42] = test system: Heart; test: Toxicity in isolated rabbit heart model assessed as adverse side effect upto 10 uM; assay type: tissue-based, Oryctolagus cuniculus
[43] = Permeability from apical to basolateral side of human Caco-2 cell membranes; assay type: ADME, cell-based; conditions: read-out: permeability (converted)
[44] = biological target: C-X-C chemokine receptor type 6 (Homo sapiens) (UniProt O00574); test: Inhibition of CXCR6 upto 1 uM
[45] = test system: Cynomolgus monkey; test: Prolongation of graft survival in cynomolgus monkey kidney transplantation model at 40 mg/kg, po qd in presence of cyclosporine A; assay type: functional, Macaca fascicularis
[46] = biological target: C-X-C chemokine receptor type 3 (Homo sapiens) (UniProt P49682); test: Inhibition of CXCR3 upto 1 uM
[47] = Protein binding in rat plasma; assay type: ADME, cell-free
[48] = Mean residence time in cynomolgus monkey; assay type: ADME, organism-based, Macaca fascicularis; conditions: in vivo
[49] = AUC in cynomolgus monkey at 1 mg/kg, po; assay type: ADME, organism-based, Macaca fascicularis; parameters: dose 1 mg/kg, route oral; conditions: plasma
[50] = biological target: T2, C-C chemokine receptor type 5; test: Antagonist activity at human CCR5 expressed in L1.2 cells assessed as MIP-1-alpha-induced Ca2+ mobilization; assay type: functional, cell-based
[51] = biological target: T2, C-C chemokine receptor type 5; test: Antagonist activity at human CCR5 expressed in CHO cells assessed as MIP-1-alpha-induced Ca2+ mobilization; assay type: functional, cell-based
[52] = Intrinsic clearance in rat liver microsomes; assay type: ADME, Microsome
[53] = Half life in po dosed rat; assay type: ADME, organism-based; conditions: in vivo
[54] = Cmax in rat at 1 mg/kg, po; assay type: ADME, organism-based; parameters: dose 1 mg/kg, route oral; conditions: in vivo
[55] = Solubility at pH 7.4; assay type: physicochemical; conditions: buffer
[56] = biological target: Cytochrome P450 2C9 (Homo sapiens, UniProt P11712); test: Inhibition of CYP2C9; assay type: ADME
Chain of Cytochrome P450 2C9 (P11712 whole entry): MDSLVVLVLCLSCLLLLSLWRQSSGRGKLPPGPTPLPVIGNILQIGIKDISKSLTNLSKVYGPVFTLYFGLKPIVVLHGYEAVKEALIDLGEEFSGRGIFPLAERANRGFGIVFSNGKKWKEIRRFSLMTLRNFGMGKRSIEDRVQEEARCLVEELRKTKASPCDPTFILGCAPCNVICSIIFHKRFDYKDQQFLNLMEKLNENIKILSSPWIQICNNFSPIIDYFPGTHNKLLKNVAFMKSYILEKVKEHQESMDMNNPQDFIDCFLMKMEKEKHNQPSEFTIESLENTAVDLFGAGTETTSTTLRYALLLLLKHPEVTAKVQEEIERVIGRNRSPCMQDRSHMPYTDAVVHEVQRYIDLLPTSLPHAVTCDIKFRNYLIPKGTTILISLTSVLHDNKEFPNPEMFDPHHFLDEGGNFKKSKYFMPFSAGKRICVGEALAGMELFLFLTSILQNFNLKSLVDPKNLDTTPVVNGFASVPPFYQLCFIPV

[57] = biological target: Cytochrome P450 3A4 (Homo sapiens, UniProt P08684); test: Inhibition of CYP3A4; assay type: ADME
[58] = biological target: C-C chemokine receptor type 5 (Mus musculus) (UniProt P51682); test: Binding affinity to mouse CCR5
Chain of C-C chemokine receptor type 5 (Mus musculus) (P51682 whole entry, looked up): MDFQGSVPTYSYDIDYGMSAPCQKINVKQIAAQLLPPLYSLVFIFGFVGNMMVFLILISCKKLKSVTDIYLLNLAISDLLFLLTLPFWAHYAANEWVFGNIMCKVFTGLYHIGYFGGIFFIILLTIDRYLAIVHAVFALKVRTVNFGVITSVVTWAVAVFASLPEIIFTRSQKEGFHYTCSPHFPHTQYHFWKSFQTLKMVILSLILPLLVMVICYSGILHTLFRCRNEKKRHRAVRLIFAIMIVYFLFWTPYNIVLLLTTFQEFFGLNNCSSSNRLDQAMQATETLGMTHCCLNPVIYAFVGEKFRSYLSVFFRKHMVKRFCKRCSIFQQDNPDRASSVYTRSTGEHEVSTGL

[59] = Cmax in dog at 1 mg/kg, po; assay type: ADME, organism-based, Canis lupus familiaris; parameters: dose 1 mg/kg, route oral; conditions: in vivo
[60] = test system: Heart; test: Toxicity in isolated rabbit heart model assessed as adverse side effect upto 5.0 uM; assay type: tissue-based, Oryctolagus cuniculus

## Cc1cccc(C)c1C(=O)N1CCC(C)(N2CCC(N(Cc3ccccc3)c3ccccc3)CC2)CC1
[1]
  IC50: 670 nM
[2]
  Activity: Non-toxic

## Cc1ccnc(C)c1C(=O)N1CCC(C)(N2CCC(N(c3ccccc3)c3cccnc3)CC2)CC1
[3]
  IC50: 0.8 nM
[4]
  Activity: Non-toxic
[5]
  IC50: 0.9 nM

## CC1(N2CCC(N(c3ccccc3)c3cccnc3)CC2)CCN(C(=O)c2cccc3ccccc23)CC1
[3]
  IC50: 3.6 nM
[4]
  Activity: Non-toxic
[5]
  IC50: 1.3 nM

## Cc1cc[n+]([O-])c(C)c1C(=O)N1CCC(C)(N2CCC(N(Cc3cccc(C#N)c3)c3ccccc3)CC2)CC1
[4]
  Activity: Non-toxic

## Cc1ccnc(C)c1C(=O)N1CCC(C)(N2CCC(N(c3ccccc3)c3ccccc3)CC2)CC1
[6]
  Activity: Non-toxic
[1]
  IC50: 570 nM

## Cc1cc[n+]([O-])c(C)c1C(=O)N1CCC(C)(N2CCC(N(Cc3ccccc3)c3ccccc3)CC2)CC1
[6]
  Activity: Non-toxic

## Cc1cccc(C)c1C(=O)N1CCC(C)(N2CCC(N(c3ccccc3)c3ccccc3)CC2)CC1
[1]
  IC50: 150 nM
[4]
  Activity: Non-toxic

## CC1(N2CCC(N(c3ccccc3)c3cccnc3)CC2)CCN(C(=O)c2c(Cl)cncc2Cl)CC1
[6]
  Activity: Non-toxic
[3]
  IC50: 3.2 nM
[5]
  IC50: 0.8 nM

## Cc1cc[n+]([O-])c(C)c1C(=O)N1CCC(C)(N2CCC(N(c3ccccc3)c3ccccc3)CC2)CC1
[6]
  Activity: Non-toxic
[3]
  IC50: 3.4 nM

## Cc1nc[n+]([O-])c(C)c1C(=O)N1CCC(C)(N2CCC(N(c3ccccc3)c3ccccc3)CC2)CC1
[1]
  IC50: 1200 nM
[2]
  Activity: Non-toxic

## Cc1cc[n+]([O-])c(C)c1C(=O)N1CCC(C)(N2CCC(N(c3ccccc3)c3ccccn3)CC2)CC1
[3]
  IC50: 12 nM
[4]
  Activity: Non-toxic
[5]
  IC50: 1.8 nM

## Cc1cccc(C)c1C(=O)N1CCC(C)(N2CCC(N(c3ccccc3)c3cccnc3)CC2)CC1
[6]
  Activity: Non-toxic
[3]
  IC50: 1.1 nM
[5]
  IC50: 0.5 nM

## Cc1cccc(C)c1C(=O)N1CCC(C)(N2CCC(N(c3ccccc3)c3ccncc3)CC2)CC1
[6]
  Activity: Non-toxic
[3]
  IC50: 9.8 nM
[5]
  IC50: 2 nM

## Cc1cccnc1C(=O)N1CCC(C)(N2CCC(N(c3ccccc3)c3cccnc3)CC2)CC1
[6]
  Activity: Non-toxic
[3]
  IC50: 39 nM
[5]
  IC50: 6.5 nM

## Cc1cc[n+]([O-])c(C)c1C(=O)N1CCC(C)(N2CCC(N(c3ccccc3)c3cccnc3)CC2)CC1
[7]
  Activity: 6 days
[8]
  Activity: inactive
[3]
  IC50: 8.1 nM
[9]
  Activity: inactive
[10]
  Activity: inactive
[11]
  AUC: 278 ng·h/mL
[12]
  bioavailability: 56%
[13]
  Activity: inactive
[14]
  IC50: 64 nM
[15]
  Activity: inactive
[16]
  half-life: 6.3 h
[17]
  logP: 2.2
[18]
  IC50: > 10000 nM
[19]
  Activity: inactive
[20]
  Cmax: 93 ng/mL
[21]
  Activity: inactive
[22]
  logD: 0.8
[23]
  Tmax: 0.5 h
[24]
  Activity: inactive
[25]
  MRT: 8 h
[26]
  IC50: > 10000 nM
[27]
  Activity: >100 days
[28]
  Activity: inactive
[29]
  Tmax: 0.4 h
[30]
  Papp B→A: 10.8 ×10⁻⁶ cm/s
[31]
  AUC: 41 ng·h/mL
[32]
  fraction unbound: 0.62
[33]
  bioavailability: 22%
[34]
  pKa: 5.5
[35]
  Activity: inactive
[36]
  solubility: 1000 µg/mL (≈ 2000 µM)
[37]
  Tmax: 0.6 h
[38]
  IC50: > 10000 nM
[39]
  half-life: 7.9 h
[40]
  bioavailability: 43%
[41]
  microsomal CLint: < 15 µL/min/mg
[42]
  Activity: Non-toxic
[43]
  Papp A→B: 0.667 ×10⁻⁶ cm/s
[44]
  Activity: inactive
[45]
  Activity: 39 days
[46]
  Activity: inactive
[47]
  fraction unbound: 0.48
[48]
  MRT: 6 h
[49]
  AUC: 503 ng·h/mL
[50]
  IC50: 16.2 nM
[51]
  IC50: 43.6 nM
[52]
  microsomal CLint: < 15 µL/min/mg
[53]
  half-life: 8.1 h
[54]
  Cmax: 5.8 ng/mL
[55]
  solubility: > 12500 µg/mL
[56]
  IC50: > 10000 nM
[57]
  IC50: 5300 nM
[5]
  IC50: 5.1 nM
[58]
  Activity: inactive
[59]
  Cmax: 84 ng/mL

## Cc1ncnc(C)c1C(=O)N1CCC(C)(N2CCC(N(c3ccccc3)c3ccccc3)CC2)CC1
[6]
  Activity: Non-toxic

## CC1(N2CCC(N(c3ccccc3)c3cccnc3)CC2)CCN(C(=O)c2c(Cl)c[n+]([O-])cc2Cl)CC1
[3]
  IC50: 4.2 nM
[4]
  Activity: Non-toxic
[5]
  IC50: 1 nM

## Cc1nc(CN(c2ccccc2)C2CCN(C3(C)CCN(C(=O)c4c(C)cc[n+]([O-])c4C)CC3)CC2)cs1
[3]
  IC50: 107 nM
[60]
  Activity: Non-toxic
[1]
  IC50: 12200 nM
[5]
  IC50: 1.7 nM
